Reference: BigSolDB 2.1

CN/C(=C\[N+](=O)[O-])NCCSCc1csc(CN(C)C)n1
solubility (mole fraction)
Details	in acetone	in ethanol	in ethyl acetate	in methanol	in water
273.15 K	0.00283	0.00287	0.00029	0.0167	0.0225
278.15 K	0.0034	0.00381	0.00033	0.0211	0.0232
283.15 K	0.00432	0.00487	0.00043	0.027	0.0238
288.15 K	0.00552	0.00653	0.00058	0.0347	0.0247
293.15 K	0.00701	0.00867	0.00063	0.0447	0.0257
298.15 K	0.00806	0.0133	0.00082	0.0589	0.0297
303.15 K	0.0103	0.0167	0.00093	0.0765	0.0325
308.15 K	0.0128	0.0212	0.00148	0.103	0.036
313.15 K	0.0164	0.0301	0.00187	0.147	0.0402
318.15 K	0.0235	0.0376	0.00219	0.203	0.0463
323.15 K	0.0385	0.062	0.00269	–	0.0535
328.15 K	–	0.0955	0.00343	–	0.0653
333.15 K	–	0.179	0.0042	–	0.0809
338.15 K	–	–	0.0055	–	0.109
343.15 K	–	–	–	–	0.164
